The text below walks through data of PMC6743422, “Preclinical disposition of MGS0274 besylate, a prodrug of a potent group II metabotropic glutamate receptor agonist MGS0008 for the treatment of schizophrenia” (Pharmacology Research & Perspectives, 2019).

In data set [1] the test system is rat cryopreserved hepatocytes. The data set can be described thus: In vitro metabolite profiling in rat cryopreserved hepatocytes. The format is in vitro ADME. The note with it: rat hepatocytes. Here is the method:
Rat, monkey, or human cryopreserved hepatocytes in Leivovitz L‐15 medium at 0.5 million cells/mL were incubated at 37°C for 1 hour with [^14C]MGS0274 besylate at 10 μmol/L. The reaction was terminated by adding 10% w/v trichloroacetic acid solution, and the resultant mixture was centrifuged. Aliquots of the supernatant were subjected to bioanalysis using high‐performance liquid chromatography equipped with radiochemical flow detection (RI‐HPLC) (see Table S1‐B). Aliquots of the supernatant from unlabeled incubation samples and authentic standards were also injected into a liquid chromatography‐mass spectrometry (LC‐MS) system under the same chromatographic conditions to compare their chromatographic retention times and mass spectral data (see Table S1‐B).

The subject of the next data set is mGlu2/3 receptors. Conditions: cited from earlier work.
A short description of data set [2]: Pharmacokinetics after oral MGS0274 besylate in monkeys. The format is in vivo, cynomolgus monkey. The note with it: fed male monkeys, MGS0274 besylate oral 2.89 mg/kg. How it is done: The pharmacokinetic profiles of MGS0008 and MGS0274 were investigated in fasted male Wistar rats (n = 3) and fed male cynomolgus monkeys (n = 4). Monkeys had been given 60 g of a primate diet (PS‐A; Oriental Yeast, Tokyo, Japan) one hour before administration. For intravenous administration, MGS0008 was dissolved in saline (pH7.4) and administered to rats (3 mg/kg) and monkeys (1 mg/kg). Blood samples were collected from the tail vein (rats) or the forelimb cephalic vein (monkeys) into tubes containing EDTA‐2K at 5, 15, and 30 minutes and at 1, 2, 4, 8, and 24 hours postdose for both species, and an additional sample was collected at 12 hours postdose for monkeys. Urine samples were collected until 48 hours at 24‐hour intervals (rats) or at 0‐ to 8‐hour, 8‐ to 24‐hour, and 24‐ to 48‐hour intervals (monkeys). The plasma or urine samples was mixed with acetonitrile/methanol (9:1, v/v) containing [^13C2 ^15N]MGS0008 and centrifuged. Aliquots of the supernatant were subjected to bioanalysis using LC‐MS/MS (see Table S1‐E). For oral administration, MGS0008 was dissolved in distilled water (rats) or 0.5% w/v methylcellulose 400 (monkeys) and administered to rats (3 mg/kg) and monkeys (1 mg/kg). MGS0274 besylate was suspended in 0.5% w/v methylcellulose 400 containing 0.1% v/v Tween 80 and administered to monkeys at a dose of 2.89 mg/kg (1‐mg equivalent of MGS0008/kg). Blood samples were collected from the tail vein (rats) or the forelimb cephalic vein (monkeys) into tubes containing EDTA‐2K at 30 minutes, 1, 1.5, 2, 4, 6, 8, and 24 hours postdose for rats, and 30 minutes, 1, 2, 4, 8, 12, and 24 hours postdose for monkeys. The plasma samples were mixed with acetonitrile/methanol (9:1, v/v) containing internal standards ([^13C2 ^15N]MGS0008 and MGS0039) and centrifuged. Aliquots of the supernatant were subjected to bioanalysis using LC‐MS/MS (see Tables S1‐E and F). In the study examining the tissue distribution of MGS0008 in rats (3 mg/kg), blood samples were collected from the posterior vena cava into tubes containing EDTA‐2K under isoflurane anesthesia at 1.5, 4, 6, or 24 hours postdose. Then, the animals were euthanized by exsanguination from the abdominal aorta; cerebrospinal fluid (CSF) samples were drawn from the spinal cord space in each animal. The plasma or CSF was mixed with acetonitrile/methanol (9:1, v/v) containing [^13C2 ^15N]MGS0008 and centrifuged. Aliquots of the supernatant were subjected to bioanalysis using LC‐MS/MS (see Table S1‐E). The plasma concentration‐time profiles of MGS0008 and MGS0274 were analyzed using a non‐compartmental analysis method with pharmacokinetic analysis software Phoenix® WinNonlin® 6.2 or later (Certara, Princeton, NJ).

[3] abbreviates: cynomolgus monkey, plasma, compound monitored MGS0274, mean of two animals.

Entries after “also recorded” stand apart in the source; their conditions may differ.

For the compound `N[C@]1(C(=O)O)[C@H]2[C@@H](C[C@@H]1F)[C@@H]2C(=O)O` [MGS0008, (1S,2S,3S,5R,6S)‐2‐amino‐3‐fluorobicyclo[3.1.0]hexane‐2,6‐dicarboxylic acid], the “further metabolism of MGS0008 in hepatocytes” value in data set [1] is listed as “no metabolites”. Further, the “agonist activity for mGlu2/3 receptors” value with mGlu2/3 receptors is “potent agonist activity”.

By Cmax is commonly meant the maximum level reached in the sampled fluid or tissue. Usually Tmax stands for the time from dosing to the highest level. `CC(C)[C@@H]1CC[C@@H](C)C[C@H]1OC(=O)O[C@@H](C)OC(=O)[C@H]1[C@@H]2C[C@H](F)[C@@](N)(C(=O)O)[C@@H]21.O=S(=O)(O)c1ccccc1` [MGS0274 besylate, (1S,2S,3S,5R,6S)‐2‐amino‐3‐fluoro‐6‐({(1S)‐1‐[({[(1R,2S,5R)‐5‐methyl‐2‐(propan‐2‐yl)cyclohexyl]oxy}carbonyl)oxy]ethoxy}carbonyl)bicyclo[3.1.0]hexane‐2‐carboxylic acid monobenzenesulfonate]: in data set [2] (setting [3]), the Cmax was found to be 1.28 ng/mL and the Tmax was determined as 1 h. For the same compound, the AUC(0-t) in data set [2] (cynomolgus monkey, plasma, compound monitored MGS0274, mean of two animals, read-out: AUC0–24h of MGS0274) turned out to be 2.03 ng·h/mL. The vomiting entry in data set [2] is given as “two of the four monkeys experienced vomiting”. In addition, the MGS0274 in plasma result in data set [2] (lower limit of quantification 1 ng/mL, 2.89 mg/kg) is “barely detectable; also recorded: barely detected”.
